Assay results reported in publication PMC6476306 (Biochemistry, 2017).

target: T1, S. aureus DnaG primase CTD (Staphylococcus aureus, UniProt P63964); assay: 2D 1H-15N HSQC NMR titration; assay type: binding
T1 sequence (P63964 463-605): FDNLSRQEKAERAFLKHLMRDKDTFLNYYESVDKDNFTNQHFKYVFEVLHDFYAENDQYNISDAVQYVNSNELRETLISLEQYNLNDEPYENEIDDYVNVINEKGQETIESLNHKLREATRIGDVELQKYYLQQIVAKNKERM

| SMILES | Kd [mM] |
| --- | --- |
| O=c1c(O)c(-c2cc(O)c(O)c(O)c2)oc2cc(O)cc(O)c12 [myricetin] | > 4 |
| Nc1nc2c(ncn2COCCO)c(=O)[nH]1 [acycloguanosine] | > 4 |
| Nc1ncnc2c1ncn2[C@@H]1O[C@H](CO)[C@@H](O)[C@H]1O [adenosine] | > 4 |
